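Following 48 hours of exposure in 96-well plates, responses at five concentrations were used to interpolate endpoints linearly. GI50 is the concentration that inhibits growth by half. The concentration for full growth arrest is given as TGI.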
Assays:
Test in all cases: NCI anticancer screen, dose series, 48 h
K-562 leukemia = test system: K-562 leukemia
ACHN renal = test system: ACHN renal
HCC-2998 colon = test system: HCC-2998 colon
TK-10 renal = test system: TK-10 renal
SR leukemia = test system: SR leukemia
SNB-75 CNS = test system: SNB-75 CNS
CCRF-CEM leukemia = test system: CCRF-CEM leukemia
HS 578T breast = test system: HS 578T breast
M14 melanoma = test system: M14 melanoma
NCI-H522 lung = test system: NCI-H522 lung
RPMI-8226 leukemia = test system: RPMI-8226 leukemia
BT-549 breast = test system: BT-549 breast
NCI-H460 lung = test system: NCI-H460 lung
MOLT-4 leukemia = test system: MOLT-4 leukemia
UACC-257 melanoma = test system: UACC-257 melanoma
U251 CNS = test system: U251 CNS
HOP-92 NSCLC = test system: HOP-92 NSCLC
SK-MEL-2 melanoma = test system: SK-MEL-2 melanoma
OVCAR-3 ovarian = test system: OVCAR-3 ovarian
SF-295 CNS = test system: SF-295 CNS
HT29 colon = test system: HT29 colon
IGROV1 ovarian = test system: IGROV1 ovarian
KM12 colon = test system: KM12 colon
OVCAR-8 ovarian = test system: OVCAR-8 ovarian
DU-145 prostate = test system: DU-145 prostate
SK-MEL-28 melanoma = test system: SK-MEL-28 melanoma
NCI/ADR-RES ovarian = test system: NCI/ADR-RES ovarian
SNB-19 CNS = test system: SNB-19 CNS
A498 renal = test system: A498 renal
NCI-H226 lung = test system: NCI-H226 lung
MDA-MB-231 breast = test system: MDA-MB-231 breast
NCI-H23 lung = test system: NCI-H23 lung
T-47D breast = test system: T-47D breast
MALME-3M melanoma = test system: MALME-3M melanoma
SW-620 colon = test system: SW-620 colon
SF-539 CNS = test system: SF-539 CNS
RXF 393 renal = test system: RXF 393 renal
786-0 renal = test system: 786-0 renal
SK-OV-3 ovarian = test system: SK-OV-3 ovarian
UACC-62 melanoma = test system: UACC-62 melanoma
EKVX NSCLC = test system: EKVX NSCLC
SF-268 CNS = test system: SF-268 CNS
CAKI-1 renal = test system: CAKI-1 renal
OVCAR-5 ovarian = test system: OVCAR-5 ovarian
MDA-MB-435 = test system: MDA-MB-435
HOP-62 NSCLC = test system: HOP-62 NSCLC
SK-MEL-5 melanoma = test system: SK-MEL-5 melanoma
PC-3 prostate = test system: PC-3 prostate
SN12C renal = test system: SN12C renal
COLO 205 colon = test system: COLO 205 colon
LOX IMVI melanoma = test system: LOX IMVI melanoma
A549 NSCLC = test system: A549 NSCLC
HL-60(TB) leukemia = test system: HL-60(TB) leukemia
HCT-116 colon = test system: HCT-116 colon
OVCAR-4 ovarian = test system: OVCAR-4 ovarian
HCT-15 colon = test system: HCT-15 colon
MCF7 breast = test system: MCF7 breast
UO-31 renal = test system: UO-31 renal

Structure (SMILES): O=C1C(Cl)=C(N2CCN(CCOCCO)CC2)C(=O)c2ncccc21
- TGI (K-562 leukemia): > 10 µM
- TGI (ACHN renal): > 10 µM
- TGI (HCC-2998 colon): > 10 µM
- TGI (TK-10 renal): > 10 µM
- TGI (SR leukemia): > 10 µM
- TGI (SNB-75 CNS): > 10 µM
- TGI (CCRF-CEM leukemia): > 10 µM
- TGI (HS 578T breast): > 10 µM
- TGI (M14 melanoma): > 10 µM
- TGI (NCI-H522 lung): 6.33 µM
- TGI (RPMI-8226 leukemia): > 10 µM
- TGI (BT-549 breast): > 10 µM
- TGI (NCI-H460 lung): > 10 µM
- TGI (MOLT-4 leukemia): > 10 µM
- TGI (UACC-257 melanoma): > 10 µM
- TGI (U251 CNS): > 10 µM
- TGI (HOP-92 NSCLC): 3.29 µM
- TGI (SK-MEL-2 melanoma): > 10 µM
- TGI (OVCAR-3 ovarian): > 10 µM
- TGI (SF-295 CNS): > 10 µM
- TGI (HT29 colon): > 10 µM
- TGI (IGROV1 ovarian): > 10 µM
- TGI (KM12 colon): > 10 µM
- TGI (OVCAR-8 ovarian): > 10 µM
- TGI (DU-145 prostate): > 10 µM
- TGI (SK-MEL-28 melanoma): > 10 µM
- TGI (NCI/ADR-RES ovarian): > 10 µM
- TGI (SNB-19 CNS): > 10 µM
- TGI (A498 renal): > 10 µM
- TGI (NCI-H226 lung): > 10 µM
- TGI (MDA-MB-231 breast): > 10 µM
- TGI (NCI-H23 lung): > 10 µM
- TGI (T-47D breast): 5.51 µM
- TGI (MALME-3M melanoma): > 10 µM
- TGI (SW-620 colon): > 10 µM
- TGI (SF-539 CNS): > 10 µM
- TGI (RXF 393 renal): 9.68 µM
- TGI (786-0 renal): > 10 µM
- TGI (SK-OV-3 ovarian): > 10 µM
- TGI (UACC-62 melanoma): > 10 µM
- TGI (EKVX NSCLC): > 10 µM
- TGI (SF-268 CNS): > 10 µM
- TGI (CAKI-1 renal): > 10 µM
- TGI (OVCAR-5 ovarian): > 10 µM
- TGI (MDA-MB-435): 7.05 µM
- TGI (HOP-62 NSCLC): > 10 µM
- TGI (SK-MEL-5 melanoma): > 10 µM
- TGI (PC-3 prostate): > 10 µM
- TGI (SN12C renal): > 10 µM
- TGI (COLO 205 colon): > 10 µM
- TGI (LOX IMVI melanoma): > 10 µM
- TGI (A549 NSCLC): > 10 µM
- TGI (HL-60(TB) leukemia): > 10 µM
- TGI (HCT-116 colon): > 10 µM
- TGI (OVCAR-4 ovarian): > 10 µM
- TGI (HCT-15 colon): > 10 µM
- TGI (MCF7 breast): > 10 µM

Structure (SMILES): Nc1nonc1C(=Nc1ccc(F)c(Cl)c1)NO
- GI50 (K-562 leukemia): 58.8 µM
- TGI (K-562 leukemia): > 100 µM
- GI50 (ACHN renal): 32.7 µM
- TGI (ACHN renal): > 100 µM
- GI50 (HCC-2998 colon): > 91.5 µM
- TGI (HCC-2998 colon): > 100 µM
- GI50 (TK-10 renal): 55.9 µM
- TGI (TK-10 renal): > 100 µM
- GI50 (SR leukemia): > 63.2 µM
- TGI (SR leukemia): > 100 µM
- GI50 (SNB-75 CNS): 14.2 µM
- TGI (SNB-75 CNS): 76.5 µM
- GI50 (CCRF-CEM leukemia): 98.3 µM
- TGI (CCRF-CEM leukemia): > 100 µM
- GI50 (HS 578T breast): 49.5 µM
- TGI (HS 578T breast): > 100 µM
- GI50 (M14 melanoma): 51.9 µM
- TGI (M14 melanoma): > 100 µM
- GI50 (NCI-H522 lung): > 47.1 µM
- TGI (NCI-H522 lung): > 100 µM
- GI50 (RPMI-8226 leukemia): 42.3 µM
- TGI (RPMI-8226 leukemia): > 100 µM
- GI50 (BT-549 breast): 29.8 µM
- TGI (BT-549 breast): > 100 µM
- GI50 (NCI-H460 lung): > 93.2 µM
- TGI (NCI-H460 lung): > 100 µM
- GI50 (MOLT-4 leukemia): 43.4 µM
- TGI (MOLT-4 leukemia): > 100 µM
- GI50 (U251 CNS): > 75.7 µM
- TGI (U251 CNS): > 100 µM
- GI50 (HOP-92 NSCLC): 12.6 µM
- TGI (HOP-92 NSCLC): 54.9 µM
- GI50 (SK-MEL-2 melanoma): 65 µM
- TGI (SK-MEL-2 melanoma): > 100 µM
- GI50 (UO-31 renal): 12.6 µM
- TGI (UO-31 renal): 97.5 µM
- GI50 (OVCAR-3 ovarian): 43.1 µM
- TGI (OVCAR-3 ovarian): > 100 µM
- GI50 (SF-295 CNS): 37.9 µM
- TGI (SF-295 CNS): > 100 µM
- GI50 (HT29 colon): > 100 µM
- TGI (HT29 colon): > 100 µM
- GI50 (IGROV1 ovarian): 28.9 µM
- TGI (IGROV1 ovarian): > 100 µM
- GI50 (KM12 colon): 79 µM
- TGI (KM12 colon): > 100 µM
- GI50 (OVCAR-8 ovarian): 71.1 µM
- TGI (OVCAR-8 ovarian): > 100 µM
- GI50 (DU-145 prostate): 63.7 µM
- TGI (DU-145 prostate): > 100 µM
- GI50 (SK-MEL-28 melanoma): > 100 µM
- TGI (SK-MEL-28 melanoma): > 100 µM
- GI50 (NCI/ADR-RES ovarian): 49.2 µM
- TGI (NCI/ADR-RES ovarian): > 100 µM
- GI50 (SNB-19 CNS): > 94.2 µM
- TGI (SNB-19 CNS): > 100 µM
- GI50 (A498 renal): 21.1 µM
- TGI (A498 renal): > 86.9 µM
- GI50 (NCI-H226 lung): 68 µM
- TGI (NCI-H226 lung): > 100 µM
- GI50 (MDA-MB-231 breast): 29.7 µM
- TGI (MDA-MB-231 breast): > 100 µM
- GI50 (NCI-H23 lung): 46.6 µM
- TGI (NCI-H23 lung): > 100 µM
- GI50 (T-47D breast): 20.4 µM
- TGI (T-47D breast): > 100 µM
- GI50 (MALME-3M melanoma): 95.2 µM
- TGI (MALME-3M melanoma): > 100 µM
- GI50 (SW-620 colon): > 100 µM
- TGI (SW-620 colon): > 100 µM
- GI50 (SF-539 CNS): 54.2 µM
- TGI (SF-539 CNS): > 100 µM
- GI50 (RXF 393 renal): 33.6 µM
- TGI (RXF 393 renal): > 100 µM
- GI50 (786-0 renal): 63.3 µM
- TGI (786-0 renal): > 100 µM
- GI50 (SK-OV-3 ovarian): 49.3 µM
- TGI (SK-OV-3 ovarian): > 100 µM
- GI50 (UACC-62 melanoma): 29.8 µM
- TGI (UACC-62 melanoma): > 100 µM
- GI50 (EKVX NSCLC): 25.1 µM
- TGI (EKVX NSCLC): > 100 µM
- GI50 (SF-268 CNS): 39.4 µM
- TGI (SF-268 CNS): > 100 µM
- GI50 (CAKI-1 renal): 28.8 µM
- TGI (CAKI-1 renal): > 100 µM
- GI50 (OVCAR-5 ovarian): 53.2 µM
- TGI (OVCAR-5 ovarian): > 100 µM
- GI50 (MDA-MB-435): > 88.4 µM
- TGI (MDA-MB-435): > 100 µM
- GI50 (HOP-62 NSCLC): 28 µM
- TGI (HOP-62 NSCLC): > 100 µM
- GI50 (SK-MEL-5 melanoma): 41.4 µM
- TGI (SK-MEL-5 melanoma): > 100 µM
- GI50 (PC-3 prostate): 42.4 µM
- TGI (PC-3 prostate): > 100 µM
- GI50 (SN12C renal): 45.8 µM
- TGI (SN12C renal): > 100 µM
- GI50 (COLO 205 colon): 60.5 µM
- TGI (COLO 205 colon): > 100 µM
- GI50 (LOX IMVI melanoma): 40 µM
- TGI (LOX IMVI melanoma): > 100 µM
- GI50 (A549 NSCLC): > 66 µM
- TGI (A549 NSCLC): > 100 µM
- GI50 (HL-60(TB) leukemia): 62.8 µM
- TGI (HL-60(TB) leukemia): > 100 µM
- GI50 (HCT-116 colon): 51.5 µM
- TGI (HCT-116 colon): > 100 µM
- GI50 (OVCAR-4 ovarian): 25.3 µM
- TGI (OVCAR-4 ovarian): > 100 µM
- GI50 (HCT-15 colon): 47.3 µM
- TGI (HCT-15 colon): > 100 µM
- GI50 (MCF7 breast): 41.6 µM
- TGI (MCF7 breast): > 100 µM

— PubChem BioAssay (NCI)
